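Five compound concentrations were applied to cells in 96-well plates for 48 hours; endpoints were derived by simple linear interpolation of the resulting dose-response curve. GI50 is the concentration that inhibits growth by half. At the TGI there is no net growth.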
Columns and labels:
Assay in all cases: NCI anticancer screen, dose series, 48 h
A549 NSCLC = test system: A549 NSCLC
DMS 273 small cell lung = test system: DMS 273 small cell lung
HL-60(TB) leukemia = test system: HL-60(TB) leukemia
IGROV1 ovarian = test system: IGROV1 ovarian
KM20L2 colon = test system: KM20L2 colon
M19-MEL melanoma = test system: M19-MEL melanoma
NCI-H460 lung = test system: NCI-H460 lung
HCT-116 colon = test system: HCT-116 colon
OVCAR-3 ovarian = test system: OVCAR-3 ovarian
SNB-78 CNS = test system: SNB-78 CNS
MCF7 breast = test system: MCF7 breast
MDA-MB-435 = test system: MDA-MB-435

| Structure (SMILES) | TGI (A549 NSCLC) | TGI (DMS 273 small cell lung) | TGI (HL-60(TB) leukemia) | TGI (IGROV1 ovarian) | TGI (KM20L2 colon) | TGI (M19-MEL melanoma) | TGI (NCI-H460 lung) | TGI (HCT-116 colon) | TGI (OVCAR-3 ovarian) | TGI (SNB-78 CNS) | GI50 (A549 NSCLC) | GI50 (HCT-116 colon) | GI50 (HL-60(TB) leukemia) | GI50 (IGROV1 ovarian) | GI50 (MCF7 breast) | TGI (MCF7 breast) | GI50 (MDA-MB-435) | TGI (MDA-MB-435) | GI50 (NCI-H460 lung) | GI50 (OVCAR-3 ovarian) |
| --- | --- | --- | --- | --- | --- | --- | --- | --- | --- | --- | --- | --- | --- | --- | --- | --- | --- | --- | --- | --- |
| O=C(O)CN(c1ccccc1)S(=O)(=O)c1ccc(Cl)cc1 | > 100 µM | > 100 µM | > 100 µM | > 100 µM | > 100 µM | > 100 µM | > 100 µM | – | – | – | – | – | – | – | – | – | – | – | – | – |
| CC1=C(/C=C/C2=CC(=C\C(=O)O)/CC(C3=C(C)CCCC3(C)C)C2)C(C)(C)CCC1 (stereo unspecified) | 19.6 µM | 27.7 µM | – | 26.4 µM | – | 30.6 µM | 27.8 µM | 37 µM | 27.1 µM | 41.2 µM | – | – | – | – | – | – | – | – | – | – |
| O=C1NC(=O)C(=O)C(c2nc3ccccc3s2)C1=O | > 100 µM | > 100 µM | > 100 µM | > 100 µM | > 100 µM | > 100 µM | > 100 µM | > 100 µM | > 100 µM | > 100 µM | – | – | – | – | – | – | – | – | – | – |
| O=C(N/C(=C\c1ccc([N+](=O)[O-])cc1)c1nc2ccc(Cl)cc2[nH]1)c1ccccc1 | 74.8 µM | – | 48.5 µM | 43.8 µM | 50.9 µM | > 100 µM | – | – | 52 µM | > 100 µM | – | – | – | – | – | – | – | – | – | – |
| O=S1c2ccccc2N=C(c2ccc(Cl)cc2)CC1c1cccs1 (stereo unspecified) | > 100 µM | 28.2 µM | 45.1 µM | 35.7 µM | 59.6 µM | 39 µM | > 100 µM | 24.3 µM | 17.3 µM | > 100 µM | – | – | – | – | – | – | – | – | – | – |
| CCOC(=O)/C(C#N)=C\C=C1/C=CNC2=NCCN21 | > 100 µM | > 100 µM | > 100 µM | > 100 µM | > 100 µM | > 100 µM | > 100 µM | > 100 µM | > 100 µM | > 100 µM | – | – | – | – | – | – | – | – | – | – |
| Cc1ccc(NC(=O)CC/C(CC(=O)c2ccc(Cl)cc2)=N\NC(=O)C(=O)NN)cc1C | > 100 µM | > 100 µM | > 100 µM | > 100 µM | > 100 µM | > 100 µM | > 100 µM | > 100 µM | > 100 µM | > 100 µM | – | – | – | – | – | – | – | – | – | – |
| O=C(O)CCSC(=O)Nc1cccc([N+](=O)[O-])c1 | > 100 µM | > 100 µM | > 100 µM | > 100 µM | – | – | > 100 µM | > 100 µM | > 100 µM | > 100 µM | – | – | – | – | – | – | – | – | – | – |
| C[C@]12CC(C#N)C(=O)C(O)=C1CC[C@@H]1C2CC[C@@]2(C)C1CC[C@@H]2O (stereo partly specified) | > 100 µM | > 100 µM | > 100 µM | 63.7 µM | > 100 µM | – | > 100 µM | > 100 µM | > 100 µM | > 100 µM | – | – | – | – | – | – | – | – | – | – |
| CC(=O)NC1C(OCc2ccccc2)OC(COC(=O)CCCCCNc2ccc([N+](=O)[O-])c3[nH]c4ccc(O)cc4c(=O)c23)C(O)C1OC(C)C(=O)N[C@@H](C)C(=O)N[C@H](CCC(=O)OCc1ccccc1)C(N)=O (stereo partly specified) | 6.92 µM | 6.03 µM | > 52.2 µM | 34 µM | 0.893 µM | 33.3 µM | 4.33 µM | 1.34 µM | 6.24 µM | 16.3 µM | – | – | – | – | – | – | – | – | – | – |
| C[C@@H](NC1CCC[C@@H]1O)c1ccccc1 (stereo partly specified) | > 100 µM | > 100 µM | > 100 µM | > 100 µM | > 100 µM | > 100 µM | > 100 µM | > 100 µM | > 100 µM | > 100 µM | – | – | – | – | – | – | – | – | – | – |
| C=CCCC(C)N(C(=O)OC(C)(C)C)S(=O)(=O)c1ccc(C)cc1 (stereo unspecified) | > 100 µM | > 100 µM | > 100 µM | > 100 µM | > 100 µM | – | > 100 µM | > 100 µM | > 100 µM | > 100 µM | – | – | – | – | – | – | – | – | – | – |
| O=C(O[C@H]1CN[C@H](C#Cc2cc3ncnc(Nc4ccc(OCc5cccc(F)c5)c(Cl)c4)c3s2)C1)N1CCOCC1 | > 25 µM | – | 15.1 µM | > 25 µM | – | – | > 25 µM | > 25 µM | 11.1 µM | – | 6000 nM | 7990 nM | 6110 nM | 2690 nM | 8570 nM | > 25 µM | 9850 nM | > 25 µM | 6400 nM | 4120 nM |
| CCn1cc(C(=O)N/N=C/c2cccc(F)c2)c(=O)c2cc(F)c(N3CCNC(C)C3)c(F)c21 (stereo unspecified) | 3.29 µM | – | 3.66 µM | 3.16 µM | – | – | 3.14 µM | 3.47 µM | 3.4 µM | – | 1740 nM | 1750 nM | 1880 nM | 1580 nM | 1640 nM | 3.18 µM | 1710 nM | 3.12 µM | 1680 nM | 1820 nM |
| COc1cc2ccnc3c2c(c1OC)CC1CC(O)C(OC)CC31 (stereo unspecified) | > 100 µM | > 100 µM | > 100 µM | > 100 µM | > 100 µM | > 100 µM | > 100 µM | > 100 µM | > 100 µM | > 100 µM | – | – | – | – | – | – | – | – | – | – |
| N/C(=N\c1nc2ccccc2s1)NC(=O)Nc1ccccc1Cl | 18.1 µM | – | 0.688 µM | 21.6 µM | – | – | 10.4 µM | 3.5 µM | 0.594 µM | – | 190 nM | 85.2 nM | 82 nM | 134 nM | 112 nM | > 100 µM | 26.9 nM | 0.0868 µM | 149 nM | 85.7 nM |
| O=C1/C(=C/c2ccccc2Br)COc2ccc(O)c(O)c21 | 10.2 µM | – | 2.78 µM | 4.29 µM | – | – | 5.64 µM | 2.78 µM | 1.83 µM | – | 2170 nM | 1310 nM | 379 nM | 742 nM | 583 nM | 6.02 µM | 1140 nM | 4.91 µM | 2130 nM | 557 nM |
| CN(C1=NS(=O)(=O)N=C(N(C)c2ccccc2)O1)c1ccccc1 | 54.4 µM | – | 33.7 µM | 75.7 µM | – | – | 47.7 µM | 27.6 µM | 51.6 µM | – | – | – | – | – | – | 38.9 µM | – | 30.4 µM | – | – |
| CN(C)Cc1cccc(CN(C)C)[c]1[Sn]([Br])([c]1ccccc1)[c]1ccccc1 | 60.1 µM | – | 3.93 µM | 4.52 µM | – | – | 65.9 µM | 17.3 µM | 24.3 µM | – | 17000 nM | 4310 nM | 1760 nM | 436 nM | 10500 nM | 24.5 µM | 17100 nM | 41.6 µM | 13400 nM | 11300 nM |

Reference: PubChem BioAssay (NCI)
